Laboratory results taken from ChEMBL document CHEMBL2146378, “Curcumin is an inhibitor of calcium/calmodulin dependent protein kinase II” (Bioorg Med Chem, 2012).

Legend:
[1] = molecular target: T1, Calcium/calmodulin-dependent protein kinase type II subunit alpha (Homo sapiens, UniProt Q9UQM7); assay: Inhibition of alphaCaMK2 using GST-NR2A as substrate incubated for 1 min prior to substrate addition measured after 1 min
[2] = Inhibition of Albino Wistar rat CaMK2 autophosphorylation at Thr286 in brain cytosolic fraction using [gamma32P]ATP incubated for 30 secs prior to ATP addition measured after 30 secs; type: tissue-based
[3] = Inhibition of Albino Wistar rat CaMK2 autophosphorylation at Thr286 in postsynaptic density fraction using [gamma32P]ATP incubated for 30 secs prior to ATP addition measured after 30 secs
[4] = molecular target: T1, Calcium/calmodulin-dependent protein kinase type II subunit alpha; assay: Inhibition of alphaCaMK2 autophosphorylation at Thr286 using [gamma32P]ATP incubated for 30 secs prior to ATP addition measured after 30 secs
[5] = Inhibition of Albino Wistar rat CaMK2 in brain cytosolic fraction using GST-NR2A as substrate incubated for 1 min prior to substrate addition measured after 1 min; type: tissue-based
[6] = Inhibition of Albino Wistar rat CaMK2 in postsynaptic density fraction using GST-NR2A as substrate incubated for 1 min prior to substrate addition measured after 1 min
[7] = molecular target: T1, Calcium/calmodulin-dependent protein kinase type II subunit alpha; assay: Inhibition of autophosphorylated alphaCaMK2 using GST-NR2A as substrate incubated for 1 min prior to substrate addition measured after 1 min in presence of EGTA
[8] = Inhibition of Albino Wistar rat CaMK2 in postsynaptic density fraction using GST-NR2A as substrate incubated for 1 min prior to substrate addition measured after 1 min in presence of EGTA
[9] = molecular target: T1, Calcium/calmodulin-dependent protein kinase type II subunit alpha; assay: Inhibition of autophosphorylated alphaCaMK2 using GST-NR2A as substrate incubated for 1 min prior to substrate addition measured after 1 min
[10] = Inhibition of Albino Wistar rat CaMK2 in brain cytosolic fraction using GST-NR2A as substrate incubated for 1 min prior to substrate addition measured after 1 min in presence of EGTA; type: tissue-based
[11] = molecular target: Calcium/calmodulin-dependent protein kinase type II subunit alpha (Homo sapiens, UniProt Q9UQM7, T286D); assay: Inhibition of alphaCaMK2 T286D mutant using GST-NR2A as substrate incubated for 1 min prior to substrate addition measured after 1 min in presence of EGTA
Sequence of Calcium/calmodulin-dependent protein kinase type II subunit alpha (Homo sapiens, UniProt Q9UQM7, T286D) (Q9UQM7 whole entry T286D): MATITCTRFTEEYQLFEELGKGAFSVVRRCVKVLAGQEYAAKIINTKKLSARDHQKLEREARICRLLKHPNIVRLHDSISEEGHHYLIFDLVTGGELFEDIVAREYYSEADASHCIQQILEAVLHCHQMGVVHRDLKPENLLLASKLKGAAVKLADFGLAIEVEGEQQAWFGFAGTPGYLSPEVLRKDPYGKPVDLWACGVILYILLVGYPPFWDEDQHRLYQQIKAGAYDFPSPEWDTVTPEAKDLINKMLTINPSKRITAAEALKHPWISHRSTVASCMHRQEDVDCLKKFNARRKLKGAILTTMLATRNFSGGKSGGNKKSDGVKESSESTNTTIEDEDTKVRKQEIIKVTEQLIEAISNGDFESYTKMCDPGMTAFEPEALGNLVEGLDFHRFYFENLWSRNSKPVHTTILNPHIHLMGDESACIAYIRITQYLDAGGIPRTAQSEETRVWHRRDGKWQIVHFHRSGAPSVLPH

T1 sequence (Q9UQM7 whole entry): as the sequence (Q9UQM7 whole entry T286D) above, with D286T counted along it

Row | Structure (SMILES) | IC50 [1] [µM] | IC50 [2] [µM] | IC50 [3] [µM] | IC50 [4] [µM] | IC50 [5] [µM] | IC50 [6] [µM] | IC50 [7] [µM] | IC50 [8] [µM] | IC50 [9] [µM] | IC50 [10] [µM] | IC50 [11] [µM]
1 | COc1cc(/C=C/C(O)=C/C(=O)/C=C/c2ccc(O)cc2)ccc1O [DEMETHOXYCURCUMIN] | 24 |  |  |  |  |  |  |  |  |  | 
2 | COc1cc(/C=C/c2cc(/C=C/c3ccc(O)c(OC)c3)n(-c3ccccc3)n2)ccc1O | 37 | 80 | 68 | 111 | 94 | 103 | 54 | 62 | 79 | 96 | 
3 | COc1cc(/C=C/C(=O)CC(=O)/C=C/c2ccc(O)c(OC)c2)ccc1O (stereo in doubt) [CURCUMIN] | 21 | 143 | 69 | 33 | 112 | 80 | 34 | 33 | 45 | 64 | 37
4 | COc1cc(/C=C/c2cc(/C=C/c3ccc(O)c(OC)c3)on2)ccc1O | 11.4 | 17.1 | 22.8 | 18 | 28.9 | 22.9 | 0.68 | 18.9 | 24.4 | 13.7 | 
5 | O=C(/C=C/c1ccc(O)cc1)CC(=O)/C=C/c1ccc(O)cc1 [BISDEMETHOXYCURCUMIN] | 37 |  |  |  |  |  |  |  |  |  | 
6 | COc1cc(/C=C/c2cc(/C=C/c3ccc(O)c(OC)c3)[nH]n2)ccc1O [CURCUMIN PYRAZOLE] | 1.49 | 16.3 | 7.58 | 6.5 | 4.4 | 3.6 | 0.29 | 0.34 | 6.3 | 0.44 | 
7 | COc1cc(/C=C/C(=O)CC(=O)/C=C/c2ccc(O)c(OC)c2)ccc1O (stereo in doubt; 1) [CURCUMIN] | 13 |  |  |  |  |  |  |  |  |  | 
